Bridge positions count the residues as written; N and C are the ends. Square brackets hold non-standard residues; d marks the D form. Peptide text beside a SMILES is read from it. * marks the point of attachment. ξ: configuration not given here. Bip = N[C@@H](Cc1ccc(-c2ccccc2)cc1)C(=O)O; Phe(3-Me) = Cc1cccc(C[C@H](N)C(=O)O)c1; Pyrazinecarbonyl = O=C(c1cnccn1)*; hArg = N=C(N)NCCCC[C@H](N)C(=O)O; 4Pal = N[C@@H](Cc1ccncc1)C(=O)O; Cha = N[C@@H](CC1CCCCC1)C(=O)O; Cit = NC(=O)NCCC[C@H](N)C(=O)O; Thr(3ξ) = CC(O)[C@H](N)C(=O)O; Dap(Me) = CNC[C@H](N)C(=O)O; 12Ado = NCCCCCCCCCCCC(=O)O; hSer = N[C@@H](CCO)C(=O)O; Carboxymethyl = O=C(O)C*; Orn = NCCC[C@H](N)C(=O)O; Aun = NCCCCCCCCCCC(=O)O; Dab = NCC[C@H](N)C(=O)O; Dap = NC[C@H](N)C(=O)O; X11 = CC(C)(F)C(=O)*

For 12 compounds, IC50 results are on record in patent publication US20260022142A1, “MACROCYCLIC IMMUNOMODULATORS” (Bristol-Myers Squibb Company, priority 2022, published 2026).

The target in the assay is T1, PD-1/PD-L1 interaction (PE-labeled human PD-L1-Ig binding to Jurkat cell line over-expressing human PD-1) (Homo sapiens, UniProt Q15116).
T1 construct: expressed in transfected cells; host or cells: Jurkat
T1 sequence (Q15116 25-288): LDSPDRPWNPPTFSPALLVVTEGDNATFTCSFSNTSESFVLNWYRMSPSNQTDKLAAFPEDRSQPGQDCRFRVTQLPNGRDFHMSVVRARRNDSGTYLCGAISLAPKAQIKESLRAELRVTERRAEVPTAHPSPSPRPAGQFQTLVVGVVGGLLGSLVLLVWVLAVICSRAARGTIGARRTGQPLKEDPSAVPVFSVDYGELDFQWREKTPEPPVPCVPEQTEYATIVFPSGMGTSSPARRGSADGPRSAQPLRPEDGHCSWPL
The assay is described as follows: Jurkat-PD-1 Cell Binding High-Content Screening Assay (CBA). The class given is cell-based. The following applies: Jurkat cell line over-expressing human PD-1; PE-labeled PD-L1-Ig 20 nM final; read-out: Jurkat hPD1-PDL1 IC50. An outline of the steps: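 Human PD-L1-Ig carrying a covalent PE label on its Ig tag serves as the probe, applied at 20 nM final to compound-treated (2 h, 37° C) Jurkat-hPD-1 cells in medium with 10% fetal calf serum. After one hour, fixation and nuclear staining precede high-content image analysis.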
As to `Cc1cccc(C[C@@H]2NC(=O)[C@H](CC(=O)O)NC(=O)[C@H](Cc3ccc(OCC(=O)O)cc3)NC(=O)[C@H](CCCNC(=O)c3cnccn3)NC(=O)CSC[C@@H](C(=O)N[C@@H](CCCN)C(=O)N[C@@H](CO)C(=O)NCCCCCCCCCCCC(=O)O)NC(=O)[C@H](C(C)O)NC(=O)[C@H](CCO)NC(=O)[C@H](CC3CCCCC3)NC(=O)[C@H](CCN)NC(=O)[C@@H](CC(C)C)NC(=O)[C@H](CCCN)NC(=O)[C@H](CCCNC(N)=O)NC(=O)[C@H](Cc3ccc(-c4ccccc4)cc3)NC(=O)[C@H](C(C)C)NC2=O)c1` (stereo partly drawn) [Compound 3583] ({CH2CO}-[Orn](Pyrazinecarbonyl)Y(Carboxymethyl)D[Phe(3-Me)]V[Bip][Cit][Orn][dL][Dab][Cha][hSer][Thr(3ξ)]C[Orn]S[12Ado]-OH; thioether N-14), the IC50 (as a rule, the concentration needed to halve the response being measured) was found to be 20.5 nM.
To `Cc1cccc(C[C@@H]2NC(=O)[C@H](CC(=O)O)NC(=O)[C@H](Cc3ccc(OCC(=O)O)cc3)NC(=O)[C@H](Cc3ccncc3)NC(=O)CSC[C@@H](C(=O)N[C@@H](CCCN)C(=O)N[C@@H](CO)C(=O)NCCCCCCCCCCCC(=O)O)NC(=O)[C@H](C(C)O)NC(=O)[C@H](C(C)C)NC(=O)[C@H](CC3CCCCC3)NC(=O)[C@H](CCN)NC(=O)[C@@H](CC(C)C)NC(=O)[C@H](CCCN)NC(=O)[C@H](CCCNC(=O)C(C)(C)F)NC(=O)[C@H](Cc3ccc(-c4ccccc4)cc3)NC(=O)[C@H](Cc3ccc(O)cc3)NC2=O)c1` (stereo partly drawn) [Compound 3584] ({CH2CO}-[4Pal]Y(Carboxymethyl)D[Phe(3-Me)]Y[Bip][Orn](X11)[Orn][dL][Dab][Cha]V[Thr(3ξ)]C[Orn]S[12Ado]-OH; thioether N-14) belongs 38.2 nM; to `Cc1cccc(C[C@@H]2NC(=O)[C@H](CC(=O)O)NC(=O)[C@H](Cc3ccc(OCC(=O)O)cc3)NC(=O)[C@H](Cc3ccncc3)NC(=O)CSC[C@@H](C(=O)N[C@@H](CCCN)C(=O)N[C@@H](CO)C(=O)NCCCCCCCCCCCC(=O)O)NC(=O)[C@H](C(C)O)NC(=O)[C@H](C(C)C)NC(=O)[C@H](CC3CCCCC3)NC(=O)[C@H](CCN)NC(=O)[C@@H](CC(C)C)NC(=O)[C@H](CCCN)NC(=O)[C@H](CCCNC(N)=O)NC(=O)[C@H](Cc3ccc(-c4ccccc4)cc3)NC(=O)[C@H](C(C)C)NC2=O)c1` (stereo partly drawn) [Compound 3585] ({CH2CO}-[4Pal]Y(Carboxymethyl)D[Phe(3-Me)]V[Bip][Cit][Orn][dL][Dab][Cha]V[Thr(3ξ)]C[Orn]S[12Ado]-OH; thioether N-14), 30.8 nM.
To `Cc1cccc(C[C@@H]2NC(=O)[C@H](CC(=O)O)NC(=O)[C@H](Cc3ccc(OCC(=O)O)cc3)NC(=O)[C@H](CN)NC(=O)CSC[C@@H](C(=O)N[C@@H](CCCN)C(=O)N[C@@H](CO)C(=O)NCCCCCCCCCCCC(=O)O)NC(=O)[C@H](C(C)O)NC(=O)[C@H](C(C)C)NC(=O)[C@H](CC3CCCCC3)NC(=O)[C@H](CCN)NC(=O)[C@@H](CC(C)C)NC(=O)[C@H](CCCN)NC(=O)[C@H](CCCNC(N)=O)NC(=O)[C@H](Cc3ccc(-c4ccccc4)cc3)NC(=O)[C@H](Cc3ccc(O)cc3)NC2=O)c1` (stereo partly drawn) [Compound 3586] ({CH2CO}-[Dap]Y(Carboxymethyl)D[Phe(3-Me)]Y[Bip][Cit][Orn][dL][Dab][Cha]V[Thr(3ξ)]C[Orn]S[12Ado]-OH; thioether N-14) belongs 30.1 nM; to `Cc1cccc(C[C@@H]2NC(=O)[C@H](CC(=O)O)NC(=O)[C@H](Cc3ccc(OCC(=O)O)cc3)NC(=O)[C@H](CN)NC(=O)CSC[C@@H](C(=O)N[C@@H](CCCN)C(=O)N[C@@H](CO)C(=O)NCCCCCCCCCCCC(=O)O)NC(=O)[C@H](C(C)O)NC(=O)[C@H](CCO)NC(=O)[C@H](CC3CCCCC3)NC(=O)[C@H](CCN)NC(=O)[C@@H](CC(C)C)NC(=O)[C@H](CCCN)NC(=O)[C@H](CCCNC(N)=O)NC(=O)[C@H](Cc3ccc(-c4ccccc4)cc3)NC(=O)[C@H](C(C)C)NC2=O)c1` (stereo partly drawn) [Compound 3587] ({CH2CO}-[Dap]Y(Carboxymethyl)D[Phe(3-Me)]V[Bip][Cit][Orn][dL][Dab][Cha][hSer][Thr(3ξ)]C[Orn]S[12Ado]-OH; thioether N-14), 33.5 nM.
To `Cc1cccc(C[C@@H]2NC(=O)[C@H](CC(=O)O)NC(=O)[C@H](Cc3ccc(OCC(=O)O)cc3)NC(=O)[C@H](CN)NC(=O)CSC[C@@H](C(=O)N[C@@H](CCN)C(=O)N[C@@H](CO)C(=O)NCCCCCCCCCCCC(=O)O)NC(=O)[C@H](CCCN)NC(=O)[C@H](C(C)C)NC(=O)[C@H](CC3CCCCC3)NC(=O)[C@H](CCN)NC(=O)[C@@H](CC(C)C)NC(=O)[C@H](CCCN)NC(=O)[C@H](Cc3ccc(O)cc3)NC(=O)[C@H](Cc3ccc(-c4ccccc4)cc3)NC(=O)[C@H](C(C)C)NC2=O)c1` [Compound 3588] ({CH2CO}-[Dap]Y(Carboxymethyl)D[Phe(3-Me)]V[Bip]Y[Orn][dL][Dab][Cha]V[Orn]C[Dab]S[12Ado]-OH; thioether N-14) belongs 16.7 nM; to `Cc1cccc(C[C@@H]2NC(=O)[C@H](CC(=O)O)NC(=O)[C@H](Cc3ccc(OCC(=O)O)cc3)NC(=O)[C@H](CN)NC(=O)CSC[C@@H](C(=O)N[C@@H](CCCN)C(=O)N[C@@H](CO)C(=O)NCCCCCCCCCCCC(=O)O)NC(=O)[C@H](CCCN)NC(=O)[C@H](C(C)C)NC(=O)[C@H](CC3CCCCC3)NC(=O)[C@H](CCN)NC(=O)[C@@H](CC(C)C)NC(=O)[C@H](CCCN)NC(=O)[C@H](Cc3ccc(O)cc3)NC(=O)[C@H](Cc3ccc(-c4ccccc4)cc3)NC(=O)[C@H](C(C)C)NC2=O)c1` [Compound 3589] ({CH2CO}-[Dap]Y(Carboxymethyl)D[Phe(3-Me)]V[Bip]Y[Orn][dL][Dab][Cha]V[Orn]C[Orn]S[12Ado]-OH; thioether N-14), 27.8 nM.
Turning to `CC(=O)NCCCC[C@@H]1NC(=O)[C@H](Cc2ccc(-c3ccccc3)cc2)NC(=O)[C@H](C(C)C)NC(=O)[C@H](Cc2cccc(C)c2)NC(=O)[C@H](CC(=O)O)NC(=O)[C@H](Cc2ccc(OCC(=O)O)cc2)NC(=O)[C@H](CN)NC(=O)CSC[C@@H](C(=O)N[C@@H](CCN)C(=O)N[C@@H](CO)C(=O)NCCCCCCCCCCCC(=O)O)NC(=O)[C@H](CCCN)NC(=O)[C@H](C(C)C)NC(=O)[C@H](CC2CCCCC2)NC(=O)[C@H](CCN)NC(=O)[C@@H](CC(C)C)NC(=O)[C@H](CCCN)NC1=O` [Compound 3590] ({CH2CO}-[Dap]Y(Carboxymethyl)D[Phe(3-Me)]V[Bip]K(Ac)[Orn][dL][Dab][Cha]V[Orn]C[Dab]S[12Ado]-OH; thioether N-14), the IC50 turned out to be 6.5 nM.
As to `Cc1cccc(C[C@@H]2NC(=O)[C@H](CC(=O)O)NC(=O)[C@H](Cc3ccc(OCC(=O)O)cc3)NC(=O)[C@H](CCCCNC(=N)N)NC(=O)CSC[C@@H](C(=O)N[C@@H](CCCN)C(=O)N[C@@H](CO)C(=O)NCCCCCCCCCCCC(=O)O)NC(=O)[C@H](CO)NC(=O)[C@H](C(C)O)NC(=O)[C@H](CC3CCCCC3)NC(=O)[C@H](CCN)NC(=O)[C@@H](CC(C)C)NC(=O)[C@H](CCCN)NC(=O)[C@H](CCCNC(N)=O)NC(=O)[C@H](Cc3ccc(-c4ccccc4)cc3)NC(=O)[C@H](C(C)C)NC2=O)c1` (stereo partly drawn) [Compound 3591] ({CH2CO}-[hArg]Y(Carboxymethyl)D[Phe(3-Me)]V[Bip][Cit][Orn][dL][Dab][Cha][Thr(3ξ)]SC[Orn]S[12Ado]-OH; thioether N-14), the IC50 amounted to 23.9 nM.
For `CNC[C@@H]1NC(=O)CSC[C@@H](C(=O)N[C@@H](CCN)C(=O)NCCCCCCCCCCCC(=O)O)NC(=O)[C@H](CCCN)NC(=O)[C@H](C(C)C)NC(=O)[C@H](CC2CCCCC2)NC(=O)[C@H](CCN)NC(=O)[C@@H](CC(C)C)NC(=O)[C@H](CCCN)NC(=O)[C@H](Cc2ccc(O)cc2)NC(=O)[C@H](Cc2ccc(-c3ccccc3)cc2)NC(=O)[C@H](C(C)C)NC(=O)[C@H](Cc2cccc(C)c2)NC(=O)[C@H](CC(=O)O)NC(=O)[C@H](Cc2ccc(OCC(=O)O)cc2)NC1=O` [Compound 3592] ({CH2CO}-[Dap(Me)]Y(Carboxymethyl)D[Phe(3-Me)]V[Bip]Y[Orn][dL][Dab][Cha]V[Orn]C[Dab][12Ado]-OH; thioether N-14) the value was 8.6 nM; for `Cc1cccc(C[C@@H]2NC(=O)[C@H](CC(=O)O)NC(=O)[C@H](Cc3ccc(OCC(=O)O)cc3)NC(=O)[C@H](CN)NC(=O)CSC[C@@H](C(=O)N[C@@H](CCN)C(=O)NCCCCCCCCCCC(=O)O)NC(=O)[C@H](C(C)O)NC(=O)[C@H](C(C)C)NC(=O)[C@H](CC3CCCCC3)NC(=O)[C@H](CCN)NC(=O)[C@@H](CC(C)C)NC(=O)[C@H](CCCN)NC(=O)[C@H](CCCNC(N)=O)NC(=O)[C@H](Cc3ccc(-c4ccccc4)cc3)NC(=O)[C@H](CCCNC(N)=O)NC2=O)c1` (stereo partly drawn) [Compound 3593] ({CH2CO}-[Dap]Y(Carboxymethyl)D[Phe(3-Me)][Cit][Bip][Cit][Orn][dL][Dab][Cha]V[Thr(3ξ)]C[Dab][Aun]-OH; thioether N-14), 363 nM.
As to `CNC[C@@H]1NC(=O)CSC[C@@H](C(=O)N[C@@H](CCN)C(=O)NCCCCCCCCCCC(=O)O)NC(=O)[C@H](C(C)O)NC(=O)[C@H](C(C)C)NC(=O)[C@H](CC2CCCCC2)NC(=O)[C@H](CCN)NC(=O)[C@@H](CC(C)C)NC(=O)[C@H](CCCN)NC(=O)[C@H](CCCCNC(C)=O)NC(=O)[C@H](Cc2ccc(-c3ccccc3)cc2)NC(=O)[C@H](CCCCNC(C)=O)NC(=O)[C@H](Cc2cccc(C)c2)NC(=O)[C@H](CC(=O)O)NC(=O)[C@H](Cc2ccc(OCC(=O)O)cc2)NC1=O` (stereo partly drawn) [Compound 3594] ({CH2CO}-[Dap(Me)]Y(Carboxymethyl)D[Phe(3-Me)]K(Ac)[Bip]K(Ac)[Orn][dL][Dab][Cha]V[Thr(3ξ)]C[Dab][Aun]-OH; thioether N-14), the IC50 was 16.2 nM.
